# Entries after “also recorded” stand apart in the source; their conditions may differ. Read-outs that look alike come from different tables or passages of the source.
# Columns and labels:
# [1] = system: cell lines driven by MT-ERα; assay: sXBP1 and CHOP RNA expression; settings: three cell lines driven by MT-ERα
# [2] = system: BC cells expressing MT-ERα; assay: Uncompensated UPR / LC3B activation; type: cell-based
# Procedure: ERX-315 decreases expression of ERα MCF-7 cells with MT-ERα, both the Y537S and D538G mutants (FIG. 67C), around 12-16 h (FIG. 67D). […] In contrast, neither fulvestrant nor GDC-0810 consistently degrade MT-ERa nor induce LC3.
# [3] = system: D538G MT-ERα; assay: ERE reporter assay, ERX-315; type: cell-based; settings: MCF-7 cells expressing D538G MT-ERα
# [4] = system: MT-ERα; assay: MT-ERα protein levels; type: cell-based; settings: over 12-24 h
# [5] = system: human mammary epithelial cells (HMEC); assay: Activity of ERX-315 in HMEC; type: cell-based
# Text: ERX-315. The binding of ERX-315 (structure shown in FIG. 65C) to ERα has been validated for WT ERα LBD using time-resolved FRET (TR-FRET)-ERα Coactivator assay (FIG. 65D: purified MT-ERα LBD is not available). […] In contrast, ERX-314, which has a methyl group in place of the N-terminal fluoride of ERX-315, is modeled to bind less avidly to MT-ERα LBD (predicted docking energy˜[…]). […] ERX-315 had no activity against benign breast epithelial cells, shown for the human mammary epithelial cells (HMEC). In contrast, ERX-314 has dramatically lower potency (IC50˜1500-5000 nM) and serves an internal control for ERX-315. The inventors have performed most of the studies described below with three compounds-ERX-315 as the optimized lead, ERX-11 as the parental compound and ERX-314 as a negative control.
# [6] = system: MT-ERα (ZR-75 and MCF-7 cells with MT Y537S ERα) driven xenograft models; assay: ERX-315 in MT-ERα BC xenograft models; type: in vivo; settings: for growth of MT-ERα xenografts / mouse liver, uterus, body weight: oral 10 mg/kg; for growth of MT-ERα xenografts: captisol
# Procedure: Following establishment of tumors, mice (n=6/group) were randomized and treated for 5 days/week with either 10 mg/kg/oral of ERX-315 or vehicle.
# [7] = system: WT- and MT-ERα-driven cell lines (MCF-7, ZR-75); assay: Anti-proliferative activity in WT- and MT-ERα-driven cell lines; type: cell-based
# [8] = system: MCF-7 expressing mutant D538G; assay: Protein synthesis by puromycin labeling, BC cells; type: cell-based; settings: 16 h
# [9] = system: MT-ERα; assay: RNA sequencing of MT-ERα transcriptional programme; type: cell-based; settings: MCF-7 and ZR-75 cells expressing D538G and Y537S MT-ERα
# Text: (§1) FIGS. 66A-D: (FIG. 66A) Effect of ERX-315 on ERa DNA binding on the promoters of 5 canonical ERα-regulated genes with ERa ChIP in MCF-7 expressing D538G MT-ERα in the absence and presence of estradiol.
# (§2) Prior studies have shown that MT-ERα drives a canonical ERα transcriptional programme, both in the absence and presence of estradiol. RNA sequencing studies indicate that ERX-315 alters the transcriptional heatmap in MCF-7 and ZR-75 cells expressing D538G and Y537S MT-ERα (FIG. 66B, data shown for MCF-7 cells expressing D538G MT-ERα).
# [10] = system: breast cancer cells; assay: Growth inhibition of breast cancer cells; type: cell-based; settings: read-out: IC50, activity against breast cancer cells
# Text: In addition, another tris-benzmaide compound TK208 was synthesized and tested against breast cancer and ovarian cancer cell lines (FIGS. 10-15). […] These compounds (e.g., TK41, TK208, TK308 (FIG. 21), TK309 (FIG. 22), TK314, TK315) are extremely potent compounds that inhibit tumor growth and kill breast and ovarian cancer cells and as such, they are superb therapeutic candidates for such diseases.
# [11] = system: HMEC cells; assay: Protein synthesis by puromycin labeling, HMEC; type: cell-based, human
# [12] = target: T1, WT ERα LBD (Homo sapiens, UniProt P03372); assay: LanthaScreen TR-FRET ERα coactivator assay; type: binding
# T1 construct: in the presence of 3.5 nM ER Alpha-LBD (GST); purchased
# T1 sequence (P03372 311-547 limits assumed): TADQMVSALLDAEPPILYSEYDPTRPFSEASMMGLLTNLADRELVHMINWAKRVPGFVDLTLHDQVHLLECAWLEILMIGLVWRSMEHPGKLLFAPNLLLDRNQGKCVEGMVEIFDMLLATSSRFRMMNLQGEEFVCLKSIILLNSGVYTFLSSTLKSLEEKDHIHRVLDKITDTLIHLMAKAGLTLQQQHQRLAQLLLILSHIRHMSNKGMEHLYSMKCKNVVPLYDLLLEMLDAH
# [13] = system: D538G MT-ERα; assay: ERα ChIP, ERX-315; type: cell-based
# Text: as §1, §2
# [14] = Pharmacokinetic studies of ERX-315; type: in vivo, mice
# Procedure: At 24 h after oral administration, ERX-315 was still detectable in the plasma at >500 ng/mL. […] Thus, the inventors' initial studies indicate that once a day oral dosing of 10 mg/kg ERX-315 in captisol is sufficient to maintain therapeutic drug levels.
compound,measurement,setting,value
CC(C)COc1cc(C(=O)Nc2ccc(C(=O)N[C@H]3CC[C@H](C(=O)Nc4cnc5ccccc5c4)CC3)cc2OCC(C)C)ccc1NC(=O)c1ccc(F)c(OCCO)c1 [TK315],expression of sXBP1 and CHOP at the RNA level,[1],significantly enhance
same,uncompensated UPR leading to LC3B activation and cell death,[2],induced uncompensated UPR
same,ERE-driven transcription,[3],attenuate transcription
same,protein levels of mutant ERα,[4],< 10 % basal
same,activity against benign breast epithelial cells,[5],no activity
same,Ki67 proliferation indices in tumors,"[6]; mouse, in vivo",dramatically decreased Ki67 proliferation indices
same,growth of MT-ERα xenografts,[6]; 10 mg/kg,potent activity; also recorded: decreased the growth and tumor weight
same,growth of MT-ERα xenografts,"[6]; listed as ERX-315, 10 mg/kg",decreased the growth; also recorded: potent activity
same,"mouse liver, uterus, body weight",[6]; 10 mg/kg,no effect on mouse liver or body weight; also recorded: No change in body weight
same,"mouse liver, uterus, body weight","[6]; listed as ERX-315, 10 mg/kg","no change in body weight; also recorded: no effect on mouse liver, uterus height or body weight"
same,immunogenicity,"[6]; syngeneic D2A1 tumors, spleen, lymph nodes, kidney, liver",not immunogenic
same,IC50,[7],15 to 35 nM
same,shutdown of protein synthesis in BC cells,[8],Global shutdown of protein synthesis
same,MT-ERα transcriptional programme,[9],efficiently blocks the transcriptional programme
same,IC50,[10],10 to 50 nM
same,shutdown of protein synthesis in HMEC,[11],no significant shutdown of protein synthesis
same,binding to WT ERα LBD,[12],validated
same,MT-ERα binding to promoters of ERα-regulated genes,[13],dramatically decreases MT-ERα binding
same,oral bioavailability,[14]; captisol formulation,orally bioavailable
same,concentration at 0.5 h,"[14]; mouse, blood, 0.5 hr, single oral 10 mg/kg in captisol",3440 ± 2320 ng/mL
same,concentration at 1 h,"[14]; mouse, blood, 1 hr, single oral 10 mg/kg in captisol",2400 ± 1460 ng/mL
same,concentration at 2 h,"[14]; mouse, blood, 2 hr, single oral 10 mg/kg in captisol, read-out: Blood",1840 ± 1290 ng/mL
same,concentration at 4 h,"[14]; mouse, blood, 4 hr, single oral 10 mg/kg in captisol, read-out: Blood",16000 ± 394 ng/mL
same,concentration at 8 h,"[14]; mouse, blood, 8 hr, single oral 10 mg/kg in captisol, read-out: Blood",823 ± 123 ng/mL
same,concentration at 16 h,"[14]; mouse, blood, 16 hr, single oral 10 mg/kg in captisol, read-out: Blood",427 ± 197 ng/mL
same,concentration at 24 h,"[14]; mouse, plasma, 10 mg/kg, 24 h after oral administration, read-out: plasma level",> 500 ng/mL
same,half-life,"[14]; mouse, plasma, 10 mg/kg, oral, captisol",~4.5 h
same,concentration at 2 h,"[14]; mouse, tumor, 10 mg/kg, 2 hr after last dose, MCF7 xenograft, oral 5 days/week for 10 days, read-out: Tumor",1430 ± 631 ng/mL
same,concentration at 4 h,"[14]; mouse, tumor, 10 mg/kg, 4 hr after last dose, MCF7 xenograft, oral 5 days/week for 10 days, read-out: Tumor",1010 ± 850 ng/mL
same,concentration at 8 h,"[14]; mouse, tumor, 10 mg/kg, 8 hr after last dose, MCF7 xenograft, oral 5 days/week for 10 days, read-out: Tumor",609 ± 404 ng/mL
same,concentration at 16 h,"[14]; mouse, tumor, 10 mg/kg, 16 hr after last dose, MCF7 xenograft, oral 5 days/week for 10 days, read-out: Tumor",187 ± 238 ng/mL
same,concentration at 16 h,"[14]; mouse, tumor, oral, 10 mg/kg, 16 h after the last dose, read-out: corresponding tumor concentration",> 100 nM
same,concentration at 16 h,"[14]; mouse, tumor, MCF-7 xenograft, 2 weeks daily oral 10 mg/kg, 16 h after the last dose, read-out: tumor tissue level",> 100 ng/g
same,toxicity at 10 mg/kg,[14]; once a day oral 10 mg/kg,no significant toxicity
